# Measurements reported in patent US20200069775A1, “BRAIN OSTEOCALCIN RECEPTOR AND COGNITIVE DISORDERS” (The Trustees of Columbia University in the City of New York, priority 2017, published 2020).
# Assays:
# [1] = Ex vivo dual perfusion of the mouse placenta (maternal-fetal transport); type: in vitro ADME
# Procedure: Maternal-fetal transport of osteocalcin was monitored using ex vivo dual perfusion of the mouse placenta (Goeden & Bonnin, 2013, Nature Protocols 8:66-74). Osteocalcin (300 ng/ml) was injected on the maternal side through the uterine artery in placentas obtained from WT mice at E14.5, E15.5, and E18.5 of pregnancy (n=3 independent perfusions per age). Osteocalcin transport through the placenta was analyzed by measuring the concentration of osteocalcin present in fetal eluates obtained through the umbilical vein, each time point (1-9) corresponding to a 10 minute collection period (at 5 μl/min). Collection time points (from 10 to 30 min of perfusion) were obtained during materal fluid infusion; time points 4-6 (from 30 to 60 min of perfusion) were obtained during osteocalcin infusion into the maternal uterine artery, whereas for time points 7-9 (from 60 to 90 min of perfusion, respectively) the maternal uterine artery was infused with maternal fluid alone.
# Any influence of maternal osteocalcin on fetal brain development requires that this hormone cross the placenta. This was investigated through an ex vivo dual perfusion system that monitors the transport of substances across the mouse placenta (Bonnin et al., 2011, Nature 472:347-350; Goeden and Bonnin, […], Nature Protocols 8:66-74).
# [2] = tested on: Tph2, Th, Gad1 expression in brainstem and midbrain explants; experiment: Gene expression (qPCR) in brainstem and midbrain explants; type: cell-based, mouse
# Procedure: For gene expression studies, RNA was isolated from primary neurons or tissue using TRIZOL® (Invitrogen). cDNA synthesis was performed following a standard protocol from Invitrogen and qPCR analyses were done using specific quantitative PCR primers from SABiosciences (http://www.sabiosciences.com/RT2PCR.php).
# Brains were dissected and incubated for 30 minutes in ice cold oxygenated artificial cerebrospinal fluid (ACSF). Brains were then sliced at 500 μm at the midbrain, −1.55 to −2.35 mm from the bregma, and at the level of the brainstem, from −4.04 to −4.48 mm and from −4.60 to −5.20 mm from the bregma, to include the median and dorsal raphe, respectively. These slices were incubated in ACSF for 1 h, constantly oxygenated (95% O2 and 5% CO2) […], after which they were treated with either osteocalcin (10 ng/ml) or PBS for four hours. Expression of Tph2, TH, GAD 1, GAD2, and Ddc was measured by qPCR.
# To determine if osteocalcin acts directly on neurons to modulate neurotransmitter synthesis, several types of assays were performed. First, brainstem and midbrain explants from WT and Gprc6a^−/− mice were generated. Brains were sliced (500 μm) at the level of the median and dorsal raphe of the brainstem (from −4.04 to −4.48 mm and from −4.60 to −5.20 mm, respectively), so that they would be enriched in serotonin-producing neurons, as well as at the level of substantia nigrae and ventral tegmental areas (VTA) of the midbrain (from −1.55 to −2.35 mm and from −2.55 to −3.25 mm, respectively). Enrichment in serotoninergic and catecholaminergic neurons in these explants was verified by their high Tph2 and Th expression. While leptin, used here as a positive control, reduced, as it should, Tph2 expression in WT or Gprc6a^−/− brainstem explants, osteocalcin ([…]) increased expression of this gene 2.5 fold in both WT and Gprc6a^−/− explants. (FIG. 3D). […] Third, to further confirm that osteocalcin signals in neurons of the hindbrain, calcium flux in MPHN treated with undercarboxylated or carboxylated osteocalcin (FIG. 3F) was measured.
# [3] = Blood brain barrier crossing: subcutaneous pump infusion, content in blood, bone and brain parts by ELISA; type: in vivo, mouse; details: Osteocalcin−/− mice, subcutaneous pumps 50 ng/hour, seven days
# Procedure: Osteocalcin−/−, Gprc6a−/−, Osteocalcin-mCherry, and Osteocalcin foxed mice have been previously described (Ducy et al., 1996, Nature 382:448-452; Oury et al., 2011, Cell 144:796-809). Mouse genotypes were determined by PCR. For all experiments, controls were littermate female WT, Cre-expressing, or flox/flox. All mice were maintained on a pure 129-Sv genetic background except for the inducible deletion Osteocalcin model (mix background: 25% C57/BL6 and 75% 129sv). For inducible gene deletion mice, tamoxifen was prepared in corn oil and injected intraperitoneally (IP) (1 mg/20g of body weight) over one week. For osteocalcin delivery to pregnant mice, IP injections (240 ng/day) were performed as soon as a plug was present daily until delivery (E0.5-E18.5). For osteocalcin or leptin infusion in adult Osteocalcin−/− or ob/ob mice, pumps (Alzet micro-osmotic pump, Model 1002) delivering osteocalcin (300 ng/hr), leptin (50 ng/hr), or vehicle were surgically installed subcutaneously in the backs of 3-month old mice. For the postnatal rescue of cognitive functions in Osteocalcin−/− mice, osteocalcin (10 ng/hour) or vehicle were delivered intrasubventricularly (icv) as previously described (Ducy et al., 2000, Cell 100:197-207). Leptin and osteocalcin content in sera and tissues were determined by ELISA.
# To understand how this behavioral phenotype develops, whether osteocalcin crosses the blood brain barrier (BBB) was tested by installing pumps that subcutaneously delivered vehicle or uncarboxylated osteocalcin (50 ng/hour) in three-month-old Osteocalcin−/− mice. The positive control for this experiment was subcutaneous infusion of leptin (50 ng/hour) in 3 month-old ob/ob mice, since leptin is known to cross the BBB (Banks et al., 1996, Peptides 17:305-311). Seven days later, osteocalcin and leptin content were measured in blood, bone, and in various parts of the brain in Osteocalcin−/− and ob/ob mice, respectively.
# 16 month old WT mice = experiment: ICV delivery in aged WT mice, modified Novel Object Recognition test; type: in vivo, mouse; details: ICV 10 ng/hr, one month
# Procedure: ICV pumps delivering (10 ng/hr) recombinant uncarboxylated full-length mouse osteocalcin were implanted in 16 month old WT mice. After an infusion period of one month, the mice were subjected to a modified version of the Novel Object Recognition test, to assay memory and hippocampal function. Briefly, mice were given five 5 minute exposures, with 3 minute resting intervals between exposures, to a novel arena containing two objects. During exposures 1-4, mice were habituated to these two objects, which elicited equal amounts of exploration. In the fifth exposure, one of the objects was replaced with a novel object.
substance,measurement,setting,value
"osteocalcin: Recombinant osteocalcin bacterially produced, cleaved from the GST subunit; completely undercarboxylated at all three sites; full-length mouse osteocalcin (YLGASVPSPDPLEPTREQCELNPACDELSDQYGLKTAYKRIYGITI)",transport across the placenta,"[1]; day 14.5 of gestation, 300 ng/ml through uterine artery",begins to cross the placenta
same,transplacental transfer to the fetal circulation,[1]; day 15.5 or 18.5 of gestation,larger transplacental transfer
same,Gad1 expression,[2]; WT and Gprc6a−/− hindbrain explants,decreased Gad1 expression
same,Th expression,[2]; midbrain explants,increased Th expression
same,increase of Tph2 expression,"[2]; osteocalcin 3 ng/ml, WT and Gprc6a−/− brainstem explants",2.5 fold
same,osteocalcin accumulation in parts of the brain,[3],"accumulated in Osteocalcin−/− mice in the brainstem, thalamus, and hypothalamus"
same,"osteocalcin concentration in brainstem, thalamus, and hypothalamus relative to that observed in serum",[3],~50%
same,discrimination between novel and constant objects,16 month old WT mice,able to discriminate between the novel and constant objects
same,time exploring the novel object (Novel Object Recognition),16 month old WT mice,spent less time exploring the novel object than mice treated with vehicle alone
